Assay results as given in paper PMC8874475, “Antioxidant–Anti-Inflammatory Evaluation of a Polyherbal Formula” (Pharmaceuticals, 2022).

Columns and labels:
paw edema = conditions: cited from earlier work
NO = conditions: cited from earlier work
[1] = test system: egg white-induced rat paw edema; assay: Egg white-induced rat paw edema, plethysmometry; assay type: in vivo, Wistar rats; conditions: for Average Paw Size ± SD / Average Rise in Paw Volume ± SD: n = 3; for % inhibition of paw volume: oral, 1 h before egg white, formula F 250 mg/mL at 1 mL/100 g bw, ASP 100 mg/kg
Description: Of the many methods used in screening for the anti-inflammatory effects of various drugs, the most commonly used is the method of highlighting the inhibitory effect of edema produced in the hind paw of a rat after the injection of an inflammatory product. We used whole, fresh egg white, which, due to its inflammation being maintained for a relatively short period of time, is optimal for observation. The effect was measured by the computerized plethysmometric method, the method unanimously and currently used in testing systemic anti-inflammatory effects.
The increases in the volume of the inflamed extremity at 30, 60, 120 and 180 min were expressed as a percentages compared with the volumes measured […] injection of the irritant (Table 3). The mean values of the measured volumes for each animal and the times of measurement were calculated, as were ± standard deviations, followed by the mean values per batch (Table 4). The differences between the averages of the values obtained in the treated groups and those of the control groups (with or without treatment), were calculated for each measurement moment and the anti-inflammatory indexes were evaluated.
The anti-inflammatory effect of plant extracts was evaluated by rat paw edema assay. Wistar rats, of both sexes, weighing 150–200 g provided by the Cantacuzino Institute Biobase were used for the study. Lots of equal numbers of animals (n = 3) were established for each test sample or reference product. The animals were checked at the reception and kept for a period of 7 days for acclimatization, with observation of the clinical condition, behavior and food consumption. They were weighed at the reception and after the acclimatization period, with the selection for testing of animals with weight variations less than 10% of the initial weight. The animals were housed in appropriate cages, in small groups of the same sex. The temperature of the experimental chamber was 22 ± 2 °C and the relative humidity was 50–60%. The lighting was artificial, alternately 12-h light and 12-h dark. The animals received standardized food and water ad libitum. Twelve hours before the test, they were kept at the post and allowed access to water. The measurement of the inflamed segments volumes and their subsequent evolution was performed with the help of a U40 Basile-Italy computerized plethysmometer 7140 and the CUB dedicated software program for data acquisition and storage. The test samples and the reference substance were administered orally by intragastric gavage 1 h before the injection of the inflammatory substance (whole, fresh egg white).
The animals were injected subcutaneously with a volume of 0.1 mL of the inflammatory agent on the plantar surface of the right hind limb.
The volume of the right hind limb was measured plethysometrically prior to injection with the inflammatory agent, which represented the “0” moment of the measurements. The volume of the extremity was measured repeatedly, at 30, 60, 120 and 180 min.
In order to perform the readings, the inflamed extremity was visually marked at the level of the lateral ankle, then it was introduced into the immersion liquid of the measuring cell of the device to this level, with the performance of three measurements for each animal and for each moment, established according to the working protocol, with data storage facilitated by the plethysmometer software. The samples were administered orally by intragastric gavage, as such, at a volume of 1 mL/100 g of bw. Powder samples, after suspension with Tween 80, were administered at a concentration of 250 mg/mL, at 1 mL/100 g of bw.
The reference product (acetylsalicylic acid/aspirin) (Zentiva, Bucharest, Romania) was administered in the same way, in the form of a suspension in two doses of 100 mg/kg of bw at a volume of 1 mL/100 g of bw.

O=C(/C=C/c1ccc(O)c(O)c1)O[C@H](Cc1ccc(O)c(O)c1)C(=O)O [rosmarinic acid]
reduction of paw edema (paw edema; dose of 25 mg/kg, after 6 hrs): over 60%

CC(C)c1cc2c(c(O)c1O)[C@@]1(C(=O)O)CCCC(C)(C)[C@@H]1CC2 [Carnosic acid]
concentration that inhibits NO completely (NO): > 12.5 µg/mL

CC(C)c1cc2c(c(O)c1O)[C@@]13CCCC(C)(C)[C@@H]1C[C@@H]2OC3=O [carnosol]
IC50 (NO; read-out: IC50 NO inhibition): 9.4 µM

CC(=O)Oc1ccccc1C(=O)O [ASP 100, acetylsalicylic acid]
inhibitory action on paw edema (paw edema; third hour, 200 mg/kg, p < 0.05): 31.87%
Average Paw Size ± SD ([1]; 0 min (prior to injection)): 1.744 ± 0.297 mL
anti-inflammatory effect over the observation period ([1]; 30–180 min): anti-inflammatory effect that was induced early
Average Paw Size ± SD ([1]; 30 min): 2.489 ± 0.241 mL
Average Rise in Paw Volume ± SD ([1]; 30 min): 0.745 ± 0.056 mL
Average Paw Size ± SD ([1]; 60 min): 2.318 ± 0.161 mL
Average Rise in Paw Volume ± SD ([1]; 60 min): 0.574 ± 0.136 mL
% inhibition of paw volume ([1]; 60 min): 58.20%
Average Paw Size ± SD ([1]; 120 min): 2.216 ± 0.197 mL
Average Rise in Paw Volume ± SD ([1]; 120 min): 0.472 ± 0.1 mL
% inhibition of paw volume ([1]; 120 min): 64.25%
Average Paw Size ± SD ([1]; 180 min): 2.211 ± 0.263 mL
Average Rise in Paw Volume ± SD ([1]; 180 min): 0.467 ± 0.034 mL
